Source: article PMC12307812 (Nature Communications, 2025)
Where two headings read alike, the source gives them in different places.

Legend:
[1] = tested on: pseudovirus bearing S protein of HCoV-229E; experiment: organism not typed; type: cell-based
Calu-3 cells = experiment: Analysis of cell viability (CellTiter-Glo); type: cell-based, human; settings: 24 h, Supplementary Fig. S6
Procedure: Cells incubated with a medium containing DMSO (solvent) served as controls. Cell viability was assessed using the CellTiter-Glo® Luminescent Cell Viability Assay (Promega) according to the manufacturer’s instructions. Data normalization was performed as follows: cell viability in the absence of inhibitor (DMSO-only samples) was set as 100% and the relative viability of cells incubated with the respective inhibitor concentrations was calculated.

[2] = tested on: pseudoviruses carrying diverse coronavirus S proteins; type: cell-based
[3] = biological target: T1, Recombinant Human TMPRSS2 (Homo sapiens, UniProt O15393); experiment: TMPRSS2 biochemical assay with pre-incubation of inhibitor and enzyme; settings: for inhibition at 2.788 pM: concentration 0.00278767 nM; for inhibition at 8.363 pM: concentration 0.00836301 nM; for inhibition at 25.09 pM: concentration 0.025089 nM; for inhibition at 75.27 pM: concentration 0.0752671 nM; for inhibition at 0.000225801 µM: concentration 0.225801 nM; for inhibition at 0.000677404 µM: concentration 0.677404 nM; for inhibition at 0.00203221 µM: concentration 2.03221 nM; for inhibition at 0.00609663 µM: concentration 6.09663 nM; for inhibition at 0.0182899 µM: concentration 18.2899 nM; for inhibition at 0.0548697 µM: concentration 54.8697 nM; for inhibition at 0.164609 µM: concentration 164.609 nM; for inhibition at 0.493827 µM: concentration 493.827 nM; for inhibition at 1.48148 µM: concentration 1481.48 nM; for inhibition at 4.44444 µM: concentration 4444.44 nM; for inhibition at 13.3333 µM: concentration 13333.3 nM; for inhibition at 40 µM: concentration 40000 nM
T1 construct: human TMPRSS2 residues 106492, N-terminal 6x His-tag; 6x His-tag (N); purchased Cusabio CSB-YP023924HU; host or cells: yeast
Procedure: To that was dispensed TMPRSS2 (5 µl, 0.018 mg/ml) in assay buffer (50 mM Tris pH 8, 150 mM NaCl, 0.01% Tween20) using a BioRAPTR (Beckman Coulter) to give a total reaction volume of 5 µl. […] The final assay conditions are 10 µM peptide, 0.018 mg/ml TMPRSS2 in assay buffer (50 mM Tris-HCl, pH 8, 150 mM NaCl, 0.01% Tween20).
After incubation at room temperature for 1 h, fluorescence was measured. […] Raw plate reads for each titration point were normalized relative to a positive control containing no enzyme (0% activity, full inhibition) and a negative control containing DMSO-only wells (100% activity, basal activity). Data normalization was performed using GraphPad Prism (GraphPad Software, San Diego, CA).
We employed the curve fitting algorithm available in the SciPy package (version 1.10.1)[61] to derive the Hill slope and the IC50 value, along with their corresponding error estimates.
To model the relationship between the pre-incubation time and the IC50, we use the following equation inspired by the Morse potential:3 ft,a,D,te=D⋅1−exp−a⋅t−te^2 where t is the time, a is the width of the well, D is the IC50 at infinite time (depth of the well) and te is the time at which the IC50 reaches its minimum. Again, we made use of SciPy’s curve fitting method to obtain parameters a, D and te, with their respective error estimates.

[4] = Calu-3, read-out: mean inhibition

T1 sequence (O15393 106-492 limits assumed): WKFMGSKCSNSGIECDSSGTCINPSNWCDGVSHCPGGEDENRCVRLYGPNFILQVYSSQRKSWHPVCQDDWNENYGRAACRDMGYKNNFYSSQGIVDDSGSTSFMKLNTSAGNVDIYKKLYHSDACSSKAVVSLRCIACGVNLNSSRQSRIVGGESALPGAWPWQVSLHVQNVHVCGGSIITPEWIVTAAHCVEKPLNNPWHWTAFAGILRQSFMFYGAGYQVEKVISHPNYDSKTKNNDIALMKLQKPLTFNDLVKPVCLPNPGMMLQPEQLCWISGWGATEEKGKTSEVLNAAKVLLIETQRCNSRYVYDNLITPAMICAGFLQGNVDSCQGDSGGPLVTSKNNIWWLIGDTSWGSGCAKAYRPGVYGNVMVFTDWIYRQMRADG

SMILES: CC(C)(C)NC(=O)N1CCN(C(=O)N2C(=O)C(CCCNC(=N)N)C2C(=O)O)CC1 (stereo not drawn) [BMS-262084]
- IC50 ([1]; Calu-3, read-out: IC50 estimate, pseudovirus cell entry 229E-S): 990 ± 209 nM
- inhibition at 0.00025 µM [1, 4]: 0.992%
- inhibition at 0.0025 µM [1, 4]: 8.96%
- inhibition at 0.025 µM [1, 4]: 22%
- inhibition at 0.25 µM [1, 4]: 42.2%
- inhibition at 2.5 µM [1, 4]: 58.4%
- inhibition at 25 µM [1, 4]: 72.2%
- cytotoxicity at concentrations used for preincubation (Calu-3 cells): noncytotoxic
- fold more potent than camostat (lower IC50) [2]: ~2 fold
- fold more potent than camostat (lower IC50) ([2]; SARS-CoV-2 lineages B.1, B.1.617.2, EG.5.1, BA.2.86, Calu-3 cells): 3–8 fold
- fold IC50 relative to camostat and nafamostat ([3]; after 48 h of pre-incubation): 5 fold
- inhibition at 2.788 pM ([3]; pre-incubation 0): -15.1%
- inhibition at 8.363 pM ([3]; pre-incubation 0): -14.4%
- inhibition at 25.09 pM ([3]; pre-incubation 0): -2.55%
- inhibition at 75.27 pM ([3]; pre-incubation 0): 9.07%
- inhibition at 0.000225801 µM ([3]; pre-incubation 0): 39.6%
- inhibition at 0.000677404 µM ([3]; pre-incubation 0): 61.8%
- inhibition at 0.00203221 µM ([3]; pre-incubation 0): 83.9%
- inhibition at 0.00609663 µM ([3]; pre-incubation 0): 90.2%
- inhibition at 0.0182899 µM ([3]; pre-incubation 0): 93.8%
- inhibition at 0.0548697 µM ([3]; pre-incubation 0): 94.7%
- inhibition at 0.164609 µM ([3]; pre-incubation 0): 96.7%
- inhibition at 0.493827 µM ([3]; pre-incubation 0): 97.7%
- inhibition at 1.48148 µM ([3]; pre-incubation 0): 98.2%
- inhibition at 4.44444 µM ([3]; pre-incubation 0): 98%
- inhibition at 13.3333 µM ([3]; pre-incubation 0): 101%
- inhibition at 40 µM ([3]; pre-incubation 0): 100%
- inhibition at 2.788 pM ([3]; pre-incubation 1): 9.6%
- inhibition at 8.363 pM ([3]; pre-incubation 1): 9.83%
- inhibition at 25.09 pM ([3]; pre-incubation 1): 32.2%
- inhibition at 75.27 pM ([3]; pre-incubation 1): 60.8%
- inhibition at 0.000225801 µM ([3]; pre-incubation 1): 90%
- inhibition at 0.000677404 µM ([3]; pre-incubation 1): 96.9%
- inhibition at 0.00203221 µM ([3]; pre-incubation 1): 97.1%
- inhibition at 0.00609663 µM ([3]; pre-incubation 1): 97.8%
- inhibition at 0.0182899 µM ([3]; pre-incubation 1): 97.1%
- inhibition at 0.0548697 µM ([3]; pre-incubation 1): 97.8%
- inhibition at 0.164609 µM ([3]; pre-incubation 1): 97.6%
- inhibition at 0.493827 µM ([3]; pre-incubation 1): 98.2%
- inhibition at 1.48148 µM ([3]; pre-incubation 1): 99.5%
- inhibition at 4.44444 µM ([3]; pre-incubation 1): 100%
- inhibition at 13.3333 µM ([3]; pre-incubation 1): 101%
- inhibition at 40 µM ([3]; pre-incubation 1): 102%
- inhibition at 2.788 pM ([3]; pre-incubation 4): 5.94%
- inhibition at 8.363 pM ([3]; pre-incubation 4): 11.2%
- inhibition at 25.09 pM ([3]; pre-incubation 4): 52.1%
- inhibition at 75.27 pM ([3]; pre-incubation 4): 87.4%
- inhibition at 0.000225801 µM ([3]; pre-incubation 4): 99.5%
- inhibition at 0.000677404 µM ([3]; pre-incubation 4): 99.4%
- inhibition at 0.00203221 µM ([3]; pre-incubation 4): 99.5%
- inhibition at 0.00609663 µM ([3]; pre-incubation 4): 99.5%
- inhibition at 0.0182899 µM ([3]; pre-incubation 4): 99.8%
- inhibition at 0.0548697 µM ([3]; pre-incubation 4): 99.8%
- inhibition at 0.164609 µM ([3]; pre-incubation 4): 100%
- inhibition at 0.493827 µM ([3]; pre-incubation 4): 100%
- inhibition at 1.48148 µM ([3]; pre-incubation 4): 101%
- inhibition at 4.44444 µM ([3]; pre-incubation 4): 101%
- inhibition at 13.3333 µM ([3]; pre-incubation 4): 103%
- inhibition at 40 µM ([3]; pre-incubation 4): 102%
- inhibition at 2.788 pM ([3]; pre-incubation 8): 25.7%
- inhibition at 8.363 pM ([3]; pre-incubation 8): 29.7%
- inhibition at 25.09 pM ([3]; pre-incubation 8): 84.9%
- inhibition at 75.27 pM ([3]; pre-incubation 8): 109%
- inhibition at 0.000225801 µM ([3]; pre-incubation 8): 113%
- inhibition at 0.000677404 µM ([3]; pre-incubation 8): 114%
- inhibition at 0.00203221 µM ([3]; pre-incubation 8): 114%
- inhibition at 0.00609663 µM ([3]; pre-incubation 8): 116%
- inhibition at 0.0182899 µM ([3]; pre-incubation 8): 115%
- inhibition at 0.0548697 µM ([3]; pre-incubation 8): 116%
- inhibition at 0.164609 µM ([3]; pre-incubation 8): 116%
- inhibition at 0.493827 µM ([3]; pre-incubation 8): 116%
- inhibition at 1.48148 µM ([3]; pre-incubation 8): 118%
- inhibition at 4.44444 µM ([3]; pre-incubation 8): 119%
- inhibition at 13.3333 µM ([3]; pre-incubation 8): 118%
- inhibition at 40 µM ([3]; pre-incubation 8): 118%
- inhibition at 2.788 pM ([3]; pre-incubation 18): 20.8%
- inhibition at 8.363 pM ([3]; pre-incubation 18): 24.6%
- inhibition at 25.09 pM ([3]; pre-incubation 18): 83.1%
- inhibition at 75.27 pM ([3]; pre-incubation 18): 92.8%
- inhibition at 0.000225801 µM ([3]; pre-incubation 18): 95.2%
- inhibition at 0.000677404 µM ([3]; pre-incubation 18): 95.6%
- inhibition at 0.00203221 µM ([3]; pre-incubation 18): 98.1%
- inhibition at 0.00609663 µM ([3]; pre-incubation 18): 98.2%
- inhibition at 0.0182899 µM ([3]; pre-incubation 18): 99.5%
- inhibition at 0.0548697 µM ([3]; pre-incubation 18): 101%
- inhibition at 0.164609 µM ([3]; pre-incubation 18): 102%
- inhibition at 0.493827 µM ([3]; pre-incubation 18): 103%
- inhibition at 1.48148 µM ([3]; pre-incubation 18): 102%
- inhibition at 4.44444 µM ([3]; pre-incubation 18): 103%
- inhibition at 13.3333 µM ([3]; pre-incubation 18): 104%
- inhibition at 40 µM ([3]; pre-incubation 18): 105%
- inhibition at 2.788 pM ([3]; pre-incubation 24): 45.1%
- inhibition at 8.363 pM ([3]; pre-incubation 24): 50.8%
- inhibition at 25.09 pM ([3]; pre-incubation 24): 105%
- inhibition at 75.27 pM ([3]; pre-incubation 24): 110%
- inhibition at 0.000225801 µM ([3]; pre-incubation 24): 114%
- inhibition at 0.000677404 µM ([3]; pre-incubation 24): 114%
- inhibition at 0.00203221 µM ([3]; pre-incubation 24): 114%
- inhibition at 0.00609663 µM ([3]; pre-incubation 24): 115%
- inhibition at 0.0182899 µM ([3]; pre-incubation 24): 116%
- inhibition at 0.0548697 µM ([3]; pre-incubation 24): 115%
- inhibition at 0.164609 µM ([3]; pre-incubation 24): 116%
- inhibition at 0.493827 µM ([3]; pre-incubation 24): 116%
- inhibition at 1.48148 µM ([3]; pre-incubation 24): 117%
- inhibition at 4.44444 µM ([3]; pre-incubation 24): 117%
- inhibition at 13.3333 µM ([3]; pre-incubation 24): 117%
- inhibition at 40 µM ([3]; pre-incubation 24): 117%
- inhibition at 2.788 pM ([3]; pre-incubation 48): 32.3%
- inhibition at 8.363 pM ([3]; pre-incubation 48): 30.9%
- inhibition at 25.09 pM ([3]; pre-incubation 48): 88.5%
- inhibition at 75.27 pM ([3]; pre-incubation 48): 93.1%
- inhibition at 0.000225801 µM ([3]; pre-incubation 48): 95.9%
- inhibition at 0.000677404 µM ([3]; pre-incubation 48): 96.1%
- inhibition at 0.00203221 µM ([3]; pre-incubation 48): 94.8%
- inhibition at 0.00609663 µM ([3]; pre-incubation 48): 94.5%
- inhibition at 0.0182899 µM ([3]; pre-incubation 48): 96.1%
- inhibition at 0.0548697 µM ([3]; pre-incubation 48): 96.3%
- inhibition at 0.164609 µM ([3]; pre-incubation 48): 97.7%
- inhibition at 0.493827 µM ([3]; pre-incubation 48): 99.7%
- inhibition at 1.48148 µM ([3]; pre-incubation 48): 101%
- inhibition at 4.44444 µM ([3]; pre-incubation 48): 105%
- inhibition at 13.3333 µM ([3]; pre-incubation 48): 109%
- inhibition at 40 µM ([3]; pre-incubation 48): 112%
